We go through one compound from patent US20230116972A1, “CD38 MODULATORS AND METHODS OF USE THEREOF” (Cytokinetics, Inc., priority 2021, published 2023).

Common to all, as to type: in vitro ADME
Data set [1] addresses T1, CYP2C19 (Homo sapiens, UniProt P33261).
T1 construct: from tissue; host or cells: human liver microsomes (pooled in the time-dependent assay)
Description: time dependent inhibition of CYP450 in pooled human microsomes. The procedure:
(§1) Time dependent inhibition: An assessment of the time-dependent Inhibitory potential of test compounds against the principal human cytochrome P450 isozymes was carried out using standard methods (Grimm et al, “The Conduct of in Vitro Studies to Address Time-Dependent Inhibition of Drug-Metabolizing Enzymes: A Perspective of the Pharmaceutical Research and Manufacturers of America”, Drug Metabolism and Disposition, 37 (7): 1355, 2009). […] Each compound was pre-incubated at 37° C. plus and minus NADPH for 30 min, and with 0 min pre-incubation for assessment of potential time dependent inhibition. LC-MS/MS was used to quantify metabolite formation. […] Note that, in Tables 8 and 9, the “Compound No” corresponds to the compound numbers in Table 1.

Data set [2] deals with T2, CYP2D6 (Homo sapiens, UniProt P10635).
T2 construct: from tissue; host or cells: human liver microsomes (pooled in the time-dependent assay)
The data set is described as above. The procedure:
as §1

In data set [3] the target is T3, CYP2B6 (Homo sapiens, UniProt P20813).
T3 construct: from tissue; host or cells: human liver microsomes (pooled in the time-dependent assay)
T3 sequence (P20813 1-491): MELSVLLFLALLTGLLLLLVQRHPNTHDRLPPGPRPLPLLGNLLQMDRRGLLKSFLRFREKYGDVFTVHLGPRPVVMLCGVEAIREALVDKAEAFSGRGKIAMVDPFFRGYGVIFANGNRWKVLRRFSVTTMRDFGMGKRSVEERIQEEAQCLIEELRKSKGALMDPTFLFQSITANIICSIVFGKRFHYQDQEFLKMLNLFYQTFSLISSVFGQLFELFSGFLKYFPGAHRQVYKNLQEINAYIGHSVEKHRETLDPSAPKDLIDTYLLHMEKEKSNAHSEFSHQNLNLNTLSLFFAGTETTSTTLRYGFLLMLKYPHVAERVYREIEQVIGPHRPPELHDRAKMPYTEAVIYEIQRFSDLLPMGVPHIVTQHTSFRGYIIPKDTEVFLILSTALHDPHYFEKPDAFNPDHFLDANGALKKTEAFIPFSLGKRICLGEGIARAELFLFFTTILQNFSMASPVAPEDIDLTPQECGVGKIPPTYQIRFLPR
The data set is described as above. The procedure: as §1

Data set [4] has as its system human hepatic cytochrome P450 isozymes (CYP1A2, 2B6, 2C8, 2C9, 2C19, 2D6, and 3A4). As to the kind of experiment: time dependent inhibition, statement over all isozymes tested. The settings on record: any isozymes; pooled human microsomes; no indication of time dependent inhibition. Here is the method:
as §1

The mark [5] stands for this setting: between 30 min pre-incubation plus NADPH and 0 min.

In general, IC50 refers to the point on the concentration scale where inhibition reaches its midpoint.

Where two headings read alike, the source gives them in different places.

T2 sequence (P10635 whole entry): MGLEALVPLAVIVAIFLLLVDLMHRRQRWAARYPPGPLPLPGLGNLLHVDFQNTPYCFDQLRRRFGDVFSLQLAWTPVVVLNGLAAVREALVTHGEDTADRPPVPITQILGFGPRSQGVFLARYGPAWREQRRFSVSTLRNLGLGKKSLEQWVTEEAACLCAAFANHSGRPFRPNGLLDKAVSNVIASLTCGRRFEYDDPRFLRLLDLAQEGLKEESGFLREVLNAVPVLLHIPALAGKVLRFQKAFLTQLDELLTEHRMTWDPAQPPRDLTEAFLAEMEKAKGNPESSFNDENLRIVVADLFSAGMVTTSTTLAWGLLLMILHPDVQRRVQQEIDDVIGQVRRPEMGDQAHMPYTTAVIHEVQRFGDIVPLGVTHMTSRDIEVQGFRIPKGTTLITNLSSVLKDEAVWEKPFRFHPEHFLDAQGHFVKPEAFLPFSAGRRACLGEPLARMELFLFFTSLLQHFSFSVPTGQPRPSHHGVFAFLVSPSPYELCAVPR
T1 sequence (P33261 whole entry): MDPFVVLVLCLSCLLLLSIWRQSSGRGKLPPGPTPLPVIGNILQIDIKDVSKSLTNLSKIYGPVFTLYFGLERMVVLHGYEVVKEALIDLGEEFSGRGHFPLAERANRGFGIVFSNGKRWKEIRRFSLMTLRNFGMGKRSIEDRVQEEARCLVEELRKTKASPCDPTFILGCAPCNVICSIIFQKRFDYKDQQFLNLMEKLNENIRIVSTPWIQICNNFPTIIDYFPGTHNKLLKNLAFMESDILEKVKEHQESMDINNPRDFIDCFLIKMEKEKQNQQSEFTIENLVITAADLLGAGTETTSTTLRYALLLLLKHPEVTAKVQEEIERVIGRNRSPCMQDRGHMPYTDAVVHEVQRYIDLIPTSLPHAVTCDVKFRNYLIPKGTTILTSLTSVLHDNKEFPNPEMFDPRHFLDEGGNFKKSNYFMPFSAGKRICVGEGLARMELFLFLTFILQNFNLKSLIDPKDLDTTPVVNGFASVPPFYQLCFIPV

For `CO[C@H]1CC[C@H](NC(=O)c2nccc(-c3cncn3C)n2)CC1` [Compound 148, N-((1r,4r)-4-methoxycyclohexyl)-4-(1-methyl-1H-imidazol-5-yl)pyrimidine-2-carboxamide], in data set [1] (setting [5]), the “CYP2C19 IC50 fold shift” value is “none”. In addition, the IC50 was more than 30 µM in data set [1] (pre-incubation 0 min); more than 30 µM in data set [1] (pre-incubation 30 min (NADPH)); more than 30 µM in data set [1] (pre-incubation 30 min (NO NADPH)); 13.7 µM in data set [2] (0 min pre-incubation, pooled human microsomes, read-out: IC50 CYP2D6 (reversible inhibition)); 12.3 µM in data set [2] (pre-incubation 30 min (NADPH), read-out: CYP2D6 IC50); 9.1 µM in data set [2] (pre-incubation 30 min (NO NADPH), read-out: CYP2D6 IC50). Besides, the IC50 in data set [3] (0 min pre-incubation, pooled human microsomes, read-out: IC50 CYP2B6 (reversible inhibition)) is 26.2 µM; in data set [3] (pre-incubation 30 min (NADPH), read-out: CYP2B6 IC50) it was more than 30 µM; in data set [3] (pre-incubation 30 min (NO NADPH), read-out: CYP2B6 IC50), 24.4 µM. Moreover, the “CYP2D6 IC50 fold shift” value in data set [2] (setting [5]) is recorded as 1.1. Further, the “CYP2B6 IC50 fold shift” value in data set [3] (setting [5]) is recorded as “none”. Also, in data set [4], the “IC50 fold shift between 30 min pre-incubation plus NADPH and 0 min preincubation” value is not above 1.5 fold.
